In ChEMBL document CHEMBL1201862, “PubChem BioAssay data set” (2004):
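Grown in 96-well plates, cells were treated for 48 hours with each compound at five concentrations. Insufficient inhibition: endpoint recorded as highest concentration tested. Here, GI50 denotes the concentration required for 50% inhibition of growth.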 Active and inactive are the calls of the source. Cut-off read from the data, not from the text of the source: active = GI50 up to about 1.1 µM and inactive = higher.

What was measured:
Test in all cases: NCI anticancer screen, dose series, 48 h
[1] = test system: M14
[2] = test system: NCI/ADR-RES
[3] = test system: SNB-75
[4] = test system: HCC 2998
[5] = test system: 786-0
[6] = test system: SF-268
[7] = test system: UACC-62
[8] = test system: IGROV-1
[9] = test system: SR
[10] = test system: OVCAR-3
[11] = test system: SF-539
[12] = test system: HCT-116
[13] = test system: OVCAR-5
[14] = test system: HT-29
[15] = test system: ACHN
[16] = test system: MDA-N
[17] = test system: SK-MEL-5
[18] = test system: NCI-H460
[19] = test system: A549
[20] = test system: LOX IMVI

Row | SMILES | GI50 [1] | GI50 [2] | GI50 [3] | GI50 [4] | GI50 [5] | GI50 [6] | GI50 [7] | GI50 [8] | GI50 [9] | GI50 [10] | GI50 [11] | GI50 [12] | GI50 [13] | GI50 [14] | GI50 [15] | GI50 [16] | GI50 [17] | GI50 [18] | GI50 [19] | GI50 [20]
1 | CCCC(=O)OC[n+]1cccc(-c2c(COC(=O)NC(C)C)c(COC(=O)NC(C)C)c3n2CCC3)c1 | 50.9 µM (inactive) | 61.8 µM (inactive) | 71.3 µM (inactive) | > 100 µM (inactive) | 37.5 µM (inactive) | 32 µM (inactive) | 20.1 µM (inactive) | > 46.3 µM (inactive) | 5.75 µM (inactive) | > 77.8 µM (inactive) | 28.8 µM (inactive) | 19.7 µM (inactive) | 97.7 µM (inactive) | > 68.2 µM (inactive) | 30.7 µM (inactive) | > 100 µM (inactive) | 69.7 µM (inactive) | 29.6 µM (inactive) | 89.5 µM (inactive) | 35.2 µM (inactive)
2 | O=C(c1c2c(cc3c1CC1(Cc4cc5c(cc4C1)CCCC5)C3)CCCC2)C(Br)Br | 4.18 µM (inactive) | 19.4 µM (inactive) | 5.08 µM (inactive) | 21.5 µM (inactive) | 14.6 µM (inactive) | 14.6 µM (inactive) | 14.9 µM (inactive) | 9.02 µM (inactive) | 2.69 µM (inactive) | 18.7 µM (inactive) | 20.2 µM (inactive) | 14.9 µM (inactive) | 22.9 µM (inactive) | 20.3 µM (inactive) | 13.4 µM (inactive) | 14.8 µM (inactive) | 5.24 µM (inactive) | 40.2 µM (inactive) | 43.8 µM (inactive) | 1.79 µM (inactive)
3 | O=C1CC(NCCCNC2CC(=O)c3c(Br)sc(Br)c32)c2c(Br)sc(Br)c21 (stereo not given) | 2 µM (inactive) | 2.16 µM (inactive) | 2.48 µM (inactive) | 1.99 µM (inactive) | 0.675 µM (active) | 2.54 µM (inactive) | 1.62 µM (inactive) | 1.71 µM (inactive) | 0.798 µM (active) | 1.82 µM (inactive) | 2.47 µM (inactive) | 1.36 µM (inactive) | 2.21 µM (inactive) | 2.28 µM (inactive) | 1.8 µM (inactive) | 1.79 µM (inactive) | 2.04 µM (inactive) | 3.62 µM (inactive) | 2.69 µM (inactive) | 1.4 µM (inactive)
4 | O=c1c2cc(I)ccc2nc(Sc2ccc([N+](=O)[O-])cc2[N+](=O)[O-])n1Cc1ccccc1 | 1.94 µM (inactive) | 1.83 µM (inactive) | 3.91 µM (inactive) | 2.92 µM (inactive) | 0.815 µM (active) | 1.6 µM (inactive) | 2.29 µM (inactive) | 2.02 µM (inactive) | 0.394 µM (active) | 1.9 µM (inactive) | 2.25 µM (inactive) | 1.26 µM (inactive) | 9.02 µM (inactive) | 3.24 µM (inactive) | 8.73 µM (inactive) | 1.52 µM (inactive) | 3.48 µM (inactive) | 4.24 µM (inactive) | 15.2 µM (inactive) | 1.46 µM (inactive)
5 | COC(C/C(=C/CO[Si](C(C)C)(C(C)C)C(C)C)C(=O)Nc1ccccc1I)OC | 29.9 µM (inactive) | 22.9 µM (inactive) | 88.1 µM (inactive) | 16.4 µM (inactive) | 24.1 µM (inactive) | 46.9 µM (inactive) | 53.5 µM (inactive) | 2.99 µM (inactive) | 7.5 µM (inactive) | 21.8 µM (inactive) | 19.8 µM (inactive) | 8.97 µM (inactive) | 24 µM (inactive) | 29.6 µM (inactive) | 37.8 µM (inactive) | 23.2 µM (inactive) | 26.5 µM (inactive) | 25.5 µM (inactive) | 22.9 µM (inactive) | 16 µM (inactive)
6 | Cc1ccc2c(n1)C(=O)c1cc(C)c(C)cc1C2=O | > 100 µM (inactive) | 44 µM (inactive) | 27.5 µM (inactive) | 98.2 µM (inactive) | 62.1 µM (inactive) | 49.8 µM (inactive) | 45.9 µM (inactive) | 63.1 µM (inactive) | 30.2 µM (inactive) | 20.5 µM (inactive) | > 100 µM (inactive) | 47.6 µM (inactive) | 68.9 µM (inactive) | 36.9 µM (inactive) | > 100 µM (inactive) | > 100 µM (inactive) | 12.4 µM (inactive) | 10.6 µM (inactive) | 64.9 µM (inactive) | 68.4 µM (inactive)
7 | CCN(CCCl)c1cc(CN(C)C)cc(NC(=O)c2ccc(C(=O)Nc3cc(CN(C)C)cc(N(CC)CCCl)c3)cc2)c1 | 0.291 µM (active) | 42 µM (inactive) | 0.114 µM (active) | 0.0762 µM (active) | 0.069 µM (active) | 0.0502 µM (active) | 0.0736 µM (active) | 0.135 µM (active) | 0.0228 µM (active) | 0.384 µM (active) | 0.0762 µM (active) | 0.0962 µM (active) | 0.24 µM (active) | 0.0951 µM (active) | 0.162 µM (active) | 0.154 µM (active) | 0.158 µM (active) | < 0.0211 µM (active) | 0.0955 µM (active) | 0.0826 µM (active)
8 | COc1cc(/C=N/c2ccc(S(N)(=O)=O)cc2)cc(OC)c1 | > 50 µM (inactive) | > 50 µM (inactive) | 25.6 µM (inactive) | > 50 µM (inactive) | > 50 µM (inactive) | > 50 µM (inactive) | > 50 µM (inactive) | 18.2 µM (inactive) | 16.4 µM (inactive) | > 50 µM (inactive) | 25.3 µM (inactive) | 19.8 µM (inactive) | > 50 µM (inactive) | > 50 µM (inactive) | > 50 µM (inactive) | 26.5 µM (inactive) | > 50 µM (inactive) | > 50 µM (inactive) | > 50 µM (inactive) | 46.6 µM (inactive)
9 | COc1cc(/C=N/N=C2NCCN2)ccc1O | > 100 µM (inactive) | > 100 µM (inactive) | > 100 µM (inactive) | > 100 µM (inactive) | > 100 µM (inactive) | > 100 µM (inactive) | > 100 µM (inactive) | > 100 µM (inactive) | > 100 µM (inactive) | > 100 µM (inactive) | > 100 µM (inactive) | > 100 µM (inactive) | > 100 µM (inactive) | > 100 µM (inactive) | > 100 µM (inactive) | > 100 µM (inactive) | > 100 µM (inactive) | > 100 µM (inactive) | > 100 µM (inactive) | > 100 µM (inactive)
10 | C[C@H]1CC(=O)[C@@]2(O)C#C/C=C\C#C[C@@H]3Nc4c(cc(O)c5c4C(=O)c4ccccc4C5=O)[C@]24O[C@]314 | 0.00916 µM (active) | 0.00914 µM (active) | 0.0316 µM (active) | 0.00647 µM (active) | 0.0128 µM (active) | 0.00313 µM (active) | 0.00764 µM (active) | 0.16 µM (active) | 0.00256 µM (active) | 0.136 µM (active) | 0.00316 µM (active) | 0.00982 µM (active) | 0.0685 µM (active) | 0.0619 µM (active) | < 0.001 µM (active) | 0.0309 µM (active) | 0.00266 µM (active) | < 0.001 µM (active) | 0.00543 µM (active) | 0.0175 µM (active)
11 | C=C(C)[C@H]1C[C@@H]2O[C@@](O)(/C(C)=C\C(=O)/C=C(/C)C[C@H]3OC(=O)[C@@]24O[C@H]34)[C@@H]1O | > 100 µM (inactive) | > 100 µM (inactive) | > 100 µM (inactive) | > 100 µM (inactive) | > 100 µM (inactive) | > 100 µM (inactive) | > 100 µM (inactive) | > 100 µM (inactive) | 47.4 µM (inactive) | > 100 µM (inactive) | > 100 µM (inactive) | > 100 µM (inactive) | > 100 µM (inactive) | > 100 µM (inactive) | > 100 µM (inactive) | > 100 µM (inactive) | > 100 µM (inactive) | > 100 µM (inactive) | > 100 µM (inactive) | > 100 µM (inactive)
12 | COc1ccc(Nc2n[nH]c(NS(=O)(=O)c3cc(C)c(Cl)cc3S)n2)cc1 | > 100 µM (inactive) | > 100 µM (inactive) | > 100 µM (inactive) | > 100 µM (inactive) | > 100 µM (inactive) | > 100 µM (inactive) | > 100 µM (inactive) | > 100 µM (inactive) | > 100 µM (inactive) | > 100 µM (inactive) | > 100 µM (inactive) | > 100 µM (inactive) | > 100 µM (inactive) | > 100 µM (inactive) | > 100 µM (inactive) | > 100 µM (inactive) | > 100 µM (inactive) | > 100 µM (inactive) | > 100 µM (inactive) | > 100 µM (inactive)
13 | Cc1ccnc(NS(=O)(=O)c2ccc(NC(=O)c3ccc4nc5ccccc5c(Nc5ccc(S(=O)(=O)Nc6nccc(C)n6)cc5)c4c3)cc2)n1 | > 100 µM (inactive) | > 100 µM (inactive) | 50.4 µM (inactive) | 37.2 µM (inactive) | > 100 µM (inactive) | 28.3 µM (inactive) | 38.3 µM (inactive) | 63.1 µM (inactive) | 21.9 µM (inactive) | 33.6 µM (inactive) | 52 µM (inactive) | 59 µM (inactive) | > 100 µM (inactive) | > 100 µM (inactive) | > 100 µM (inactive) | 62.4 µM (inactive) | 27.7 µM (inactive) | 65.3 µM (inactive) | > 100 µM (inactive) | 45.3 µM (inactive)
14 | Cc1nn(-c2ccccc2)c(C)c1/C=N/NC(=O)c1sc(=S)n(-c2ccc(Cl)cc2)c1N | 5.24 µM (inactive) | 6.21 µM (inactive) | 1.48 µM (inactive) | 18.8 µM (inactive) | 3.89 µM (inactive) | 9.57 µM (inactive) | 5.98 µM (inactive) | 1.49 µM (inactive) | 3.73 µM (inactive) | 60.3 µM (inactive) | 3.64 µM (inactive) | 7.74 µM (inactive) | 6.44 µM (inactive) | 5.05 µM (inactive) | 4.18 µM (inactive) | 11.5 µM (inactive) | 4.03 µM (inactive) | 4.83 µM (inactive) | 6.28 µM (inactive) | 3.27 µM (inactive)
